Laboratory results from publication PMC7155171, “Probing the Open Global Health Chemical Diversity Library for Multistage-Active Starting Points for Next-Generation Antimalarials” (ACS Infectious Diseases, 2020).
Where two headings read alike, the source gives them in different places.

Key:
[1] = test system: P. falciparum Dd2 (PfLuc) line expressing firefly luciferase, asexual blood stage; test: microbe, parasite or virus in culture; assay type: cell-based, Plasmodium falciparum; details: Plasmodium falciparum
[2] = test system: P. falciparum Dd2; test: SYBR green I asexual blood stage proliferation assay (96 h); assay type: cell-based, Plasmodium falciparum; details: Plasmodium falciparum, DD2, 11-pt dose response, 96hr
[3] = DD2, read-out: CDD P. falciparum Luciferase ABS 11-pt Reconfirmation Dose Response (48hr): IC50 (μM), 11-pt dose response, 48hr
[4] = DD2, 8-pt dose response, 96hr, read-out: CDD P. falciparum Luciferase ABS 8-pt Reconfirmation Dose Response (96hr): IC50
[5] = DD2, 8-pt dose response, 96hr, read-out: CDD P. falciparum Luciferase ABS 8-pt Reconfirmation Dose Response (96hr): Maximum inhibition (%)
[6] = DD2, 11-pt dose response, 96hr, read-out: CDD P. falciparum Luciferase ABS 11-pt Reconfirmation Dose Response (96hr): IC50
[7] = DD2, 11-pt dose response, 96hr, read-out: CDD P. falciparum Luciferase ABS 11-pt Reconfirmation Dose Response (96hr): Maximum inhibition (%)
[8] = 96 h incubation, Dd2 luciferase, read-out: 96 hour Pfluc IC50
[9] = Sybr Green I, read-out: CDD P. falciparum Sybr Green I ABS 11-pt Reconfirmation Dose Response (96hr): IC50
[10] = Sybr Green I, read-out: CDD P. falciparum Sybr Green I ABS 11-pt Reconfirmation Dose Response (96hr): Maximum inhibition (%)
[11] = DD2, 11-pt dose response, 48hr, read-out: CDD P. falciparum Luciferase ABS 11-pt Reconfirmation Dose Response (48hr): Maximum inhibition (%)
[12] = DD2, read-out: P. falciparum Luciferase ABS 11-pt Reconfirmation Dose Response (48hr): IC50, 11-pt dose response, 48hr
[13] = DD2, 8-pt dose response, 96hr, read-out: P. falciparum Luciferase ABS 8-pt Reconfirmation Dose Response (96hr): IC50
[14] = DD2, 11-pt dose response, 48hr, read-out: P. falciparum Luciferase ABS 11-pt Reconfirmation Dose Response (48hr): Maximum inhibition (%)
[15] = DD2, 11-pt dose response, 96hr, read-out: P. falciparum Luciferase ABS 11-pt Reconfirmation Dose Response (96hr): IC50
[16] = DD2, 11-pt dose response, 96hr, read-out: P. falciparum Luciferase ABS 11-pt Reconfirmation Dose Response (96hr): Maximum inhibition (%)
[17] = read-out: P. falciparum Sybr Green I ABS 11-pt Reconfirmation Dose Response (96hr): IC50
[18] = read-out: P. falciparum Sybr Green I ABS 11-pt Reconfirmation Dose Response (96hr): Maximum inhibition (%)
[19] = DD2, 8-pt dose response, 96hr, read-out: P. falciparum Luciferase ABS 8-pt Reconfirmation Dose Response (96hr): Maximum inhibition (%)

Structure (SMILES): CC(NCC1CCN(CCO)CC1)c1ccc(OC(F)(F)F)cc1 (stereo not drawn) [DDD01073716]
- IC50 [1, 3]: 3.68 µM
- IC50 [1, 4]: 0.46 µM
- Emax [1, 5]: 95.5%
- IC50 [1, 6]: 0.546 µM
- Emax [1, 7]: 99.2%
- IC50 [1, 8]: 0.55 µM
- IC50 [2, 9]: 2880 nM
- Emax [2, 10]: 95.9%

Structure (SMILES): CC(NCC1CCN(CCO)CC1)c1cccc(Cl)c1 (stereo not drawn) [DDD01073717]
- IC50 [1, 3]: 3.01 µM
- IC50 [1, 4]: 0.56 µM
- Emax [1, 5]: 94.9%
- Emax [1, 11]: 93.9%
- IC50 [1, 6]: 0.988 µM
- Emax [1, 7]: 99.8%
- IC50 [2, 9]: 1320 nM
- Emax [2, 10]: 92.1%

Structure (SMILES): CC(NCC1CCN(CCO)CC1)c1ccc(Cl)cc1 (stereo not drawn) [DDD01073718]
- IC50 [1, 3]: 2.47 µM
- IC50 [1, 4]: 0.81 µM
- IC50 [1, 6]: 0.695 µM
- Emax [1, 7]: 98.2%
- IC50 [2, 9]: 844 nM

Structure (SMILES): CC(NCC1CCN(CCO)CC1)c1ccc(C(F)(F)F)cc1 (stereo not drawn) [DDD01073719]
- IC50 [1, 3]: 4.64 µM
- IC50 [1, 4]: 0.52 µM
- Emax [1, 5]: 92.5%
- IC50 [1, 6]: 0.614 µM
- Emax [1, 7]: 98.9%
- IC50 [1, 8]: 0.61 µM
- IC50 [2, 9]: 2650 nM
- Emax [2, 10]: 92.8%

Structure (SMILES): COc1ccc(CN2CCNC(=O)CC2)cc1SC(F)(F)F [DDD01074373]
- IC50 [1, 12]: > 4.16 µM
- IC50 [1, 13]: 1.28 µM
- Emax [1, 14]: 57.7%
- IC50 [1, 15]: 0.735 µM
- Emax [1, 16]: 70.4%
- IC50 [2, 17]: > 4160 nM
- Emax [2, 18]: 51.3%

Structure (SMILES): CCN(CC)Cc1ccccc1NC(=O)N(C)Cc1ccccc1O [DDD01074443]
- IC50 [1, 3]: 3.95 µM
- IC50 [1, 4]: 0.88 µM
- Emax [1, 5]: 90%
- Emax [1, 11]: 89.7%
- IC50 [1, 6]: 3.26 µM
- Emax [1, 7]: 95.8%
- IC50 [2, 9]: 6280 nM
- Emax [2, 10]: 87.8%

Structure (SMILES): COCCOc1ccccc1CNCC1COC2(CCCC2)O1 (stereo not drawn) [DDD01074854]
- IC50 [1, 12]: > 12.5 µM
- IC50 [1, 13]: 1.89 µM
- Emax [1, 19]: 84.3%
- Emax [1, 14]: 29.8%
- IC50 [1, 15]: 2.71 µM
- Emax [1, 16]: 75.6%
- IC50 [2, 17]: 2130 nM
- Emax [2, 18]: 71.9%

Structure (SMILES): CCc1cc(CNCc2ccccc2N(C)C2CCN(C)CC2)on1 [DDD01074859]
- IC50 [1, 3]: > 12.5 µM
- IC50 [1, 4]: 0.92 µM
- Emax [1, 5]: 83.3%
- Emax [1, 11]: 55.6%
- IC50 [1, 6]: 3.22 µM
- Emax [1, 7]: 82%
- IC50 [2, 9]: 9570 nM
- Emax [2, 10]: 72%

Structure (SMILES): CN1CCC(N(C)c2ccccc2CNCc2ccco2)CC1 [DDD01074928]
- IC50 [1, 3]: 1.71 µM
- IC50 [1, 4]: 0.27 µM
- Emax [1, 5]: 92.9%
- Emax [1, 11]: 80.4%
- IC50 [1, 6]: 0.211 µM
- Emax [1, 7]: 97.1%
- IC50 [1, 8]: 0.21 µM
- IC50 [2, 9]: 1100 nM
- Emax [2, 10]: 94.3%

Structure (SMILES): Cc1noc(C)c1CNCc1ccccc1N(C)C1CCN(C)CC1 [DDD01074938]
- IC50 [1, 3]: > 12.5 µM
- IC50 [1, 4]: 0.59 µM
- Emax [1, 5]: 91.9%
- Emax [1, 11]: 61.9%
- IC50 [1, 6]: 1.55 µM
- Emax [1, 7]: 86.7%
- IC50 [2, 9]: 2600 nM
- Emax [2, 10]: 85.6%

Structure (SMILES): Cc1ccc(CNCc2cccc3cccnc23)c(OC2CCOC2)c1 (stereo not drawn) [DDD01075119]
- IC50 [1, 3]: 3.77 µM
- IC50 [1, 4]: 0.57 µM
- Emax [1, 5]: 83.2%
- Emax [1, 11]: 87.5%
- IC50 [1, 6]: 1.44 µM
- Emax [1, 7]: 98.4%
- IC50 [2, 9]: > 4160 nM
- Emax [2, 10]: 64.7%

Structure (SMILES): CC(=O)N(c1ccc(F)cc1)c1nc(CN2CCCC2C(C)C)cs1 (stereo not drawn) [DDD01075305]
- IC50 [1, 3]: 6.08 µM
- IC50 [1, 4]: 0.65 µM
- Emax [1, 5]: 84.5%
- Emax [1, 11]: 57.5%
- IC50 [1, 6]: 2.69 µM
- Emax [1, 7]: 92.1%
- IC50 [2, 9]: > 4160 nM
- Emax [2, 10]: 62.8%

Structure (SMILES): COc1ccccc1C1(CNCc2cccc(O)c2)CCOCC1 [DDD01075721]
- IC50 [1, 3]: 10.3 µM
- IC50 [1, 4]: 0.85 µM
- Emax [1, 5]: 85.5%
- Emax [1, 11]: 67.7%
- IC50 [1, 6]: 2.2 µM
- Emax [1, 7]: 90.3%
- IC50 [2, 9]: > 4160 nM
- Emax [2, 10]: 68.7%

Structure (SMILES): Cc1ccccc1CNCC(O)c1ccc(OC(C)C)cc1 (stereo not drawn) [DDD01076008]
- IC50 [1, 3]: 3.39 µM
- IC50 [1, 4]: 0.89 µM
- Emax [1, 11]: 93.9%
- IC50 [1, 6]: 1.47 µM
- Emax [1, 7]: 99.7%
- IC50 [2, 9]: 3770 nM

Structure (SMILES): Cc1cc(N2CCC(NC(C)Cc3ccsc3)CC2)nc(C)n1 (stereo not drawn) [DDD01076128]
- IC50 [1, 12]: 2.25 µM
- IC50 [1, 13]: 1.19 µM
- Emax [1, 19]: 89.6%
- Emax [1, 14]: 81.4%
- IC50 [1, 15]: 1.09 µM
- Emax [1, 16]: 96.6%
- IC50 [2, 17]: 7780 nM
- Emax [2, 18]: 72.7%

Structure (SMILES): COCC(O)CN(C)c1ccnc2cc(Br)ccc12 (stereo not drawn) [DDD01076306]
- IC50 [1, 3]: 1.81 µM
- IC50 [1, 4]: 0.99 µM
- Emax [1, 11]: 97.7%
- IC50 [1, 6]: 1.51 µM
- Emax [1, 7]: 99.9%
- IC50 [2, 9]: 2430 nM
- Emax [2, 10]: 95.6%

Structure (SMILES): Cc1cc(NC(=O)NC2CCN(C(C)C)CC2)c2ncccc2c1 [DDD01076635]
- IC50 [1, 12]: > 12.5 µM
- IC50 [1, 13]: 2.21 µM
- Emax [1, 14]: 47.1%
- IC50 [1, 15]: 5.47 µM
- Emax [1, 16]: 86.3%
- IC50 [2, 17]: 5300 nM
- Emax [2, 18]: 53.2%

Structure (SMILES): CN1CCN(c2ccccc2NC(=O)NCCc2ccccc2)CC1 [DDD01076697]
- IC50 [1, 12]: > 12.5 µM
- IC50 [1, 13]: 1.14 µM
- Emax [1, 19]: 82.8%
- Emax [1, 14]: 65.5%
- IC50 [1, 15]: > 1.39 µM
- Emax [1, 16]: 89.4%
- IC50 [2, 17]: > 12500 nM
- Emax [2, 18]: 52.5%

Structure (SMILES): Brc1cccc(C2(CNCc3cc[nH]c3)CCOCC2)c1 [DDD01076928]
- IC50 [1, 3]: 1.56 µM
- IC50 [1, 4]: 0.82 µM
- Emax [1, 5]: 85.7%
- Emax [1, 11]: 86.3%
- IC50 [1, 6]: 0.694 µM
- Emax [1, 7]: 99.3%
- IC50 [2, 9]: 5620 nM

Structure (SMILES): Brc1ccc(C2(CNCc3cc[nH]c3)CCOCC2)cc1 [DDD01076992]
- IC50 [1, 3]: 0.715 µM
- IC50 [1, 4]: 0.62 µM
- Emax [1, 5]: 82.1%
- Emax [1, 11]: 95.6%
- IC50 [1, 6]: 0.407 µM
- Emax [1, 7]: 99.6%
- IC50 [2, 9]: 3080 nM
- Emax [2, 10]: 54%

Structure (SMILES): COCCC1(CNC(=O)Nc2ccnc(C)c2)CCCC1 [DDD01077091]
- IC50 [1, 3]: > 12.5 µM
- IC50 [1, 4]: 1.04 µM
- Emax [1, 5]: 79.6%
- Emax [1, 11]: 48.9%
- IC50 [1, 6]: > 1.39 µM
- Emax [1, 7]: 82%
- IC50 [2, 9]: > 12500 nM
- Emax [2, 10]: 47.9%

Structure (SMILES): CN1CCN(S(=O)(=O)c2ccc(Cl)c(Cl)c2)c2cnccc21 [DDD01077309]
- IC50 [1, 3]: 6.77 µM
- IC50 [1, 4]: 0.57 µM
- Emax [1, 5]: 92.2%
- Emax [1, 11]: 78.7%
- IC50 [1, 6]: 1.46 µM
- Emax [1, 7]: 95.5%
- IC50 [2, 9]: 5690 nM
- Emax [2, 10]: 82.8%
